Data: patent publication US20230114728A1 (Venatorx Pharmaceuticals, Inc., priority 2019, published 2023)
Converted amounts (≈) assume the structure as drawn. Where two headings read alike, the source gives them in different places.

Legend:
P. aeruginosa PBP3 = biological target: T1, P. aeruginosa PBP3 (Pseudomonas aeruginosa, UniProt G3XD46); assay: Bocillin-FL fluorescence polarization competition binding assay, P. aeruginosa PBP3; conditions: fluorescence polarization competition binding assay using Bocillin-FL
T1 construct: made in house
T1 sequence (G3XD46 whole entry): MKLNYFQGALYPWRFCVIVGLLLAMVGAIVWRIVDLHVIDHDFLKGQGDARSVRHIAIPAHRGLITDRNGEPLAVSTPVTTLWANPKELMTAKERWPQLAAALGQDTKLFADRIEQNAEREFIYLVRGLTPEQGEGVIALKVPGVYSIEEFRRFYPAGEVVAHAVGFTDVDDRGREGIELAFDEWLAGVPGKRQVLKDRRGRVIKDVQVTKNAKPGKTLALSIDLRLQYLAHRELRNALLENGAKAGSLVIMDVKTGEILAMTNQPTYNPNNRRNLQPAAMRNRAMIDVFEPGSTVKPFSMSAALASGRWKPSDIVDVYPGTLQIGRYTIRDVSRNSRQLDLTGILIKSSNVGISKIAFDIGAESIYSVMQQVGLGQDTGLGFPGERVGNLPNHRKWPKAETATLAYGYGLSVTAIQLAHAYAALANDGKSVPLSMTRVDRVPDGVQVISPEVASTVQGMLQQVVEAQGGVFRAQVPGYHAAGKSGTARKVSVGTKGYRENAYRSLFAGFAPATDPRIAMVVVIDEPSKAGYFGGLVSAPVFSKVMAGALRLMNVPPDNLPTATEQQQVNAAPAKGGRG
How it was run: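 Inhibitor competition with Bocillin-FL for P. aeruginosa PBP3 was followed by fluorescence polarization on a Cytation3 (BioTek) reader, using g-factor 0.96, 490 nm excitation and 520 nm emission. The enzyme was at 0.75 μM and the probe at 0.1 μM in Hepes/NaCl/glycerol buffer, 80 μl per well. FP was recorded immediately after probe addition for up to 60 minutes. Potency was expressed as EC50, the concentration that reduces bound probe by 50%.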

E. coli K12 PBP3 = biological target: T2, E. coli K12 PBP3 (Escherichia coli, UniProt P0AD68); assay: biochemical; type: binding
T2 construct: made in house
T2 sequence (P0AD68 1-577): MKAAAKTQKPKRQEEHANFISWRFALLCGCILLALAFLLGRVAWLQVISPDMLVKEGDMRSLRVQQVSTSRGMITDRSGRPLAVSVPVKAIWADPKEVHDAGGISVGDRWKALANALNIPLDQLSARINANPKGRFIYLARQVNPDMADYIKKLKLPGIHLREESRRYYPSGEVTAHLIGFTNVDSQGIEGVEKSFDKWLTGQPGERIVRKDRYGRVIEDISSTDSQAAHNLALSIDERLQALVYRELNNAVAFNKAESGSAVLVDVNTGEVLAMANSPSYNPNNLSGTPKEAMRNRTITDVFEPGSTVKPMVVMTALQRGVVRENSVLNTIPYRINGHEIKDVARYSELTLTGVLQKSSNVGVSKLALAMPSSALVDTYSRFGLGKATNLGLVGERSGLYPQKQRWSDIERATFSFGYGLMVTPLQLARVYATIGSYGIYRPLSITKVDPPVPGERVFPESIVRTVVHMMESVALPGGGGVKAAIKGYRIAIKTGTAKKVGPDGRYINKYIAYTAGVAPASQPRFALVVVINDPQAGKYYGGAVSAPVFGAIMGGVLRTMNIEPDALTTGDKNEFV
How it was run: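 A. baumannii PBP2 (2.5 μM) and PBP3 (0.2 μM) were run in 25 mM Tris pH 8.0 buffer with Tween 20; E. coli PBP3 (1.5 μM) and N. gonorrhoeae PBP2 ([…]) in 50 mM Hepes pH 8.0 buffer.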

N. gonorrhoeae WHO Z = assay: Liquid broth MIC in Fastidious broth; type: cell-based; conditions: Neisseria gonorrhoeae
How it was run: (§1)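 Colonies were swabbed from chocolate agar after 24 h growth and standardised by optical density at 600 nm. Compounds were serially diluted twofold in Fastidious broth, and bacteria added to give 5×10^5 CFU/mL. After about 24 h at 36 °C in 5% CO2, the lowest concentration allowing under 10% growth was taken as MIC.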

N. gonorrhoeae WHO Q = assay: Liquid broth MIC in Fastidious broth; type: cell-based; conditions: Neisseria gonorrhoeae
How it was run: as §1

N. gonorrhoeae WHO G = assay: Liquid broth MIC in Fastidious broth; type: cell-based; conditions: Neisseria gonorrhoeae, Fastidious broth
How it was run: as §1

N. gonorrhoeae WHO L = assay: Liquid broth MIC in Fastidious broth; type: cell-based; conditions: Neisseria gonorrhoeae, Fastidious broth
How it was run: as §1

[1] = system: N. gonorrhoeae ATCC 49226; assay: Liquid broth MIC in Fastidious broth; type: cell-based; conditions: Neisseria gonorrhoeae, ATCC49226, Fastidious broth
How it was run: as §1

N. gonorrhoeae H041 = assay: Liquid broth MIC in Fastidious broth; type: cell-based; conditions: Neisseria gonorrhoeae
How it was run: as §1

N. gonorrhoeae WHO K = assay: Liquid broth MIC in Fastidious broth; type: cell-based; conditions: Neisseria gonorrhoeae
How it was run: as §1

N. gonorrhoeae FA1090 = assay: Liquid broth MIC in Fastidious broth; type: cell-based; conditions: Neisseria gonorrhoeae, Fastidious broth
How it was run: as §1

[2] = read-out: Minimum Inhibitory Concentration, N. gonorrhoeae WHO Z
[3] = read-out: Minimum Inhibitory Concentration, N. gonorrhoeae WHO Q
[4] = N. gonorrhoeae strain WHO G, read-out: Minimum Inhibitory Concentration, N. gonorrhoeae WHO G
[5] = N. gonorrhoeae strain WHO L, read-out: Minimum Inhibitory Concentration, N. gonorrhoeae WHO L
[6] = N. gonorrhoeae strain ATCC 49226, read-out: Minimum Inhibitory Concentration, N. gonorrhoeae ATCC 49226
[7] = H041, read-out: Minimum Inhibitory Concentration, N. gonorrhoeae H041
[8] = read-out: Minimum Inhibitory Concentration, N. gonorrhoeae WHO K
[9] = N. gonorrhoeae strain FA1090, read-out: Minimum Inhibitory Concentration, N. gonorrhoeae FA1090
[10] = read-out: Minimum Inhibitory Concentration, WHO Z
[11] = read-out: Minimum Inhibitory Concentration, WHO Q
[12] = N. gonorrhoeae WHO G, read-out: Minimum Inhibitory Concentration, WHO G
[13] = N. gonorrhoeae WHO L, read-out: Minimum Inhibitory Concentration, WHO L
[14] = N. gonorrhoeae ATCC 49226, read-out: Minimum Inhibitory Concentration, ATCC 49226
[15] = H041, read-out: Minimum Inhibitory Concentration, H041
[16] = read-out: Minimum Inhibitory Concentration, WHO K
[17] = N. gonorrhoeae FA1090, read-out: Minimum Inhibitory Concentration, FA1090

Compound	P. aeruginosa PBP3 Potency (P. aeruginosa PBP3)	EC50 (E. coli K12 PBP3) [µM]	MIC (N. gonorrhoeae WHO Z; [2]) [µg/mL]	MIC (N. gonorrhoeae WHO Q; [3]) [µg/mL]	MIC (N. gonorrhoeae WHO G; [4]) [µg/mL]	MIC (N. gonorrhoeae WHO L; [5]) [µg/mL]	MIC [1, 6] [µg/mL]	MIC (N. gonorrhoeae H041; [7]) [µg/mL]	MIC (N. gonorrhoeae WHO K; [8]) [µg/mL]	MIC (N. gonorrhoeae FA1090; [9]) [µg/mL]	MIC (N. gonorrhoeae WHO Z; [10]) [µg/mL]	MIC (N. gonorrhoeae WHO Q; [11]) [µg/mL]	MIC (N. gonorrhoeae WHO G; [12]) [µg/mL]	MIC (N. gonorrhoeae WHO L; [13]) [µg/mL]	MIC [1, 14] [µg/mL]	MIC (N. gonorrhoeae H041; [15]) [µg/mL]	MIC (N. gonorrhoeae WHO K; [16]) [µg/mL]	MIC (N. gonorrhoeae FA1090; [17]) [µg/mL]
CCN1CCN(C(=O)NC(C(=O)N[C@H]2Cc3cccc(C(=O)O)c3OB2O)c2c(F)cc(NC(C)=O)cc2F)C(=O)C1=O (stereo partly drawn) [Example 188, (3R)-3-(2-(4-acetamido-2,6-difluorophenyl)-2-(4-ethyl-2,3-dioxopiperazine-1-carboxamido)acetamido)-2-hydroxy-3,4-dihydro-2H-benzo[e][1,2]oxaborinine-8-carboxylic acid]	D (D represents a potency <10 μM)	< 30	16 to 32 (≈ 26.6 to 53.2 µM)	16 to 32 (≈ 26.6 to 53.2 µM)	4 to 8 (≈ 6.65 to 13.3 µM)	> 64	4 to 8 (≈ 6.65 to 13.3 µM)	> 64	> 64	0.25 to 0.5 (≈ 0.416 to 0.831 µM)								
NCCCN1CCN(C(=O)N[C@@H](C(=O)N[C@H]2Cc3cc(Cl)c(F)c(C(=O)O)c3OB2O)c2c(F)cc(O)c(O)c2Cl)C(=O)C1=O [Example 190, (R)-3-((R)-2-(4-(3-aminopropyl)-2,3-dioxopiperazine-1-carboxamido)-2-(2-chloro-6-fluoro-3,4-dihydroxyphenyl)acetamido)-6-chloro-7-fluoro-2-hydroxy-3,4-dihydro-2H-benzo[e][1,2]oxaborinine-8-carboxylic acid]	D (D represents a potency <10 μM)	< 30	> 64	> 64	> 64	> 64	> 64	> 64	> 64	16 to 32 (≈ 23.7 to 47.5 µM)								
CCN1CCN(C(=O)N[C@@H](C(=O)N[C@H]2Cc3cc(Cl)c(F)c(C(=O)O)c3OB2O)c2c(F)cc(O)c(O)c2Cl)C(=O)C1=O [Example 191, (R)-6-chloro-3-((R)-2-(2-chloro-6-fluoro-3,4-dihydroxyphenyl)-2-(4-ethyl-2,3-dioxopiperazine-1-carboxamido)acetamido)-7-fluoro-2-hydroxy-3,4-dihydro-2H-benzo[e][1,2]oxaborinine-8-carboxylic acid]	D (D represents a potency <10 μM)	< 30	> 64	> 64	> 64	> 64	> 64	> 64	> 64	16 to 32 (≈ 24.8 to 49.6 µM)								
CCN1CCN(C(=O)NC(C(=O)N[C@H]2Cc3cccc(C(=O)O)c3OB2O)c2cc(C#N)c(OC)cc2F)C(=O)C1=O (stereo partly drawn) [Example 192, (3R)-3-(2-(5-cyano-2-fluoro-4-methoxyphenyl)-2-(4-ethyl-2,3-dioxopiperazine-1-carboxamido)acetamido)-2-hydroxy-3,4-dihydro-2H-benzo[e][1,2]oxaborinine-8-carboxylic acid]	D (D represents a potency <10 μM)	30 to 500	> 64	> 64	> 64	> 64	> 64	> 64	> 64	4 to 8 (≈ 6.88 to 13.8 µM)								
O=C(O)c1cccc2c1OB(O)[C@@H](NC(=O)C(NC(=O)N1CCN(CC3CNC3)C(=O)C1=O)c1c(F)cc(O)cc1F)C2 (stereo partly drawn) [Example 193, (3R)-3-(2-(4-(azetidin-3-ylmethyl)-2,3-dioxopiperazine-1-carboxamido)-2-(2,6-difluoro-4-hydroxyphenyl)acetamido)-2-hydroxy-3,4-dihydro-2H-benzo[e][1,2]oxaborinine-8-carboxylic acid]	D (D represents a potency <10 μM)	< 30	> 64	> 64	16 to 32 (≈ 26.6 to 53.2 µM)	> 64	> 64	> 64	> 64	1 to 2 (≈ 1.66 to 3.33 µM)								
CCN1CCN(C(=O)NC(C(=O)N[C@H]2Cc3cccc(C(=O)O)c3OB2O)c2ccc(C(=O)O)c(O)c2)C(=O)C1=O (stereo partly drawn) [Example 196, (3R)-3-(2-(4-carboxy-3-hydroxyphenyl)-2-(4-ethyl-2,3-dioxopiperazine-1-carboxamido)acetamido)-2-hydroxy-3,4-dihydro-2H-benzo[e][1,2]oxaborinine-8-carboxylic acid]	D (D represents a potency <10 μM)	< 30	4 to 8 (≈ 7.04 to 14.1 µM)	4 to 8 (≈ 7.04 to 14.1 µM)	1 to 2 (≈ 1.76 to 3.52 µM)	16 to 32 (≈ 28.2 to 56.3 µM)	4 to 8 (≈ 7.04 to 14.1 µM)	16 to 32 (≈ 28.2 to 56.3 µM)	4 to 8 (≈ 7.04 to 14.1 µM)	0.25 to 0.5 (≈ 0.44 to 0.88 µM)								
CCN1CCN(C(=O)NC(C(=O)N[C@H]2Cc3cccc(C(=O)O)c3OB2O)c2cc(NS(N)(=O)=O)ccc2F)C(=O)C1=O (stereo partly drawn) [Example 197, (3R)-3-(2-(4-ethyl-2,3-dioxopiperazine-1-carboxamido)-2-(2-fluoro-5-(sulfamoylamino)phenyl)acetamido)-2-hydroxy-3,4-dihydro-2H-benzo[e][1,2]oxaborinine-8-carboxylic acid]	D (D represents a potency <10 μM)	< 30	16 to 32 (≈ 25.8 to 51.6 µM)	16 to 32 (≈ 25.8 to 51.6 µM)	4 to 8 (≈ 6.45 to 12.9 µM)	> 64	16 to 32 (≈ 25.8 to 51.6 µM)	16 to 32 (≈ 25.8 to 51.6 µM)	16 to 32 (≈ 25.8 to 51.6 µM)	0.25 to 0.5 (≈ 0.403 to 0.806 µM)								
NS(=O)(=O)Nc1ccc(F)c(C(NC(=O)N2CCN(CCF)C(=O)C2=O)C(=O)N[C@H]2Cc3cccc(C(=O)O)c3OB2O)c1 (stereo partly drawn) [Example 198, (3R)-3-(2-(2-fluoro-5-(sulfamoylamino)phenyl)-2-(4-(2-fluoroethyl)-2,3-dioxopiperazine-1-carboxamido)acetamido)-2-hydroxy-3,4-dihydro-2H-benzo[e][1,2]oxaborinine-8-carboxylic acid]	D (D represents a potency <10 μM)	< 30	16 to 32 (≈ 25.1 to 50.1 µM)	16 to 32 (≈ 25.1 to 50.1 µM)	4 to 8 (≈ 6.27 to 12.5 µM)	> 64	16 to 32 (≈ 25.1 to 50.1 µM)	16 to 32 (≈ 25.1 to 50.1 µM)	16 to 32 (≈ 25.1 to 50.1 µM)	0.25 to 0.5 (≈ 0.392 to 0.783 µM)								
CCN1CCN(C(=O)NC(C(=O)N[C@H]2Cc3cccc(C(=O)O)c3OB2O)c2ccc(C(=O)O)c(Cl)c2Cl)C(=O)C1=O (stereo partly drawn) [Example 201, (3R)-3-(2-(4-carboxy-2,3-dichlorophenyl)-2-(4-ethyl-2,3-dioxopiperazine-1-carboxamido)acetamido)-2-hydroxy-3,4-dihydro-2H-benzo[e][1,2]oxaborinine-8-carboxylic acid]	D (D represents a potency <10 μM)	< 30									16 to 32 (≈ 25.8 to 51.5 µM)	16 to 32 (≈ 25.8 to 51.5 µM)	4 to 8 (≈ 6.44 to 12.9 µM)	> 64	4 to 8 (≈ 6.44 to 12.9 µM)	> 64	16 to 32 (≈ 25.8 to 51.5 µM)	1 to 2 (≈ 1.61 to 3.22 µM)
CS(=O)(=O)N1CCN(C(=O)NC(C(=O)N[C@H]2Cc3ccc(F)c(C(=O)O)c3OB2O)c2c(Cl)cc(O)c(O)c2F)C1=O (stereo partly drawn) [Example 208, (3R)-3-(2-(6-chloro-2-fluoro-3,4-dihydroxyphenyl)-2-(3-(methylsulfonyl)-2-oxoimidazolidine-1-carboxamido)acetamido)-7-fluoro-2-hydroxy-3,4-dihydro-2H-benzo[e][1,2]oxaborinine-8-carboxylic acid]	D (D represents a potency <10 μM)	< 30									> 64	> 64	16 to 32 (≈ 25.3 to 50.6 µM)	> 64	> 64	> 64	> 64	4 to 8 (≈ 6.32 to 12.6 µM)
